Test results taken from patent US20050245473A1, “Proliferation- and differentiation-modulating agents and uses therefor” (priority 2003, published 2005).
Entries after “also recorded” stand apart in the source; their conditions may differ.

Tests used:
Type in all cases: cell-based
[1] = test system: transglutaminase-1 promoter (TG-1 Luc) in KJD-1/SV40 cells; assay: TG-1 Luc reporter assay in KJD-1/SV40 squamous cell carcinoma cells; conditions: proliferating KJD-1/SV40 cells; TPA 50 ng/ml for 48 hours where used; FIG. 6
Method: (§1) Human epidermal keratinocytes (HEKs) were isolated and cultured from neonatal foreskins as described (1). The SCC cell line, KJD-1/SV40, were grown in culture as previously reported (2). Growth arrest and differentiation was induced by maintaining confluent cells in culture over 48 hours or by treatment with the protein kinase C (PKC) activator, 12-Otetradecanoyl-phorbol-13-acetate (TPA, 50 ng/ml for 48 hours). Both these treatment regimes induce robust and reproducible differentiation in HEKs but not in SCC cell lines (2, 41-43).
(§2) The human cdc2 promoter construct driving expression of a CAT reporter gene (cdc2-CAT) has been previously described (6). The 2.9kb transglutaminase type 1 promoter linked to a firefly luciferase gene (TG-1 Luc), keratin 10 reporter (K10-Luc), β actin-CAT reporter gene and β actin-luciferase reporter gene have also been previously described (2, 6, 41, 44, 45). β actin-CAT or β actin-Luc reporters were used to normalize for transfection efficiency. The CMV-E2F1 construct was a kind gift from Dr Kristian Helin (16). The CMV-E2F 2-5 constructs were generous gifts from Dr David Livingston (46). The mutant E2F1 constructs, 132E2F1 and 409E2F1, were kindly provided by Dr Joseph Nevins (47). The E2F1 dominant-negative (E2Fd/n) construct codes for amino acids 116-235, spanning for the DNA binding domain and heterodimerisation domain (2). […]

[2] = test system: keratin 10 promoter linked to a firefly luciferase gene (K10-Luc); assay: K10-Luc reporter assay in transfected human epidermal keratinocytes (HEKs)
Method: as §1
(§3) The human cdc2 promoter construct driving expression of a CAT reporter gene (cdc2-CAT) has been previously described (6). The 2.9kb transglutaminase type 1 promoter linked to a firefly luciferase gene (TG-1 Luc), keratin 10 reporter (K10-Luc), β actin-CAT reporter gene and β actin-luciferase reporter gene have also been previously described (2, 6, 41, 44, 45). β actin-CAT or β actin-Luc reporters were used to normalize for transfection efficiency. The CMV-E2F1 construct was a kind gift from Dr Kristian Helin (16). The CMV-E2F 2-5 constructs were generous gifts from Dr David Livingston (46). The mutant E2F1 constructs, 132E2F1 and 409E2F1, were kindly provided by Dr Joseph Nevins (47). The E2F1 dominant-negative (E2Fd/n) construct codes for amino acids 116-235, spanning for the DNA binding domain and heterodimerisation domain (2).
(§4) Transient transfections of cells were performed in 10 cm^2 well, when cells were either 50% or 100% confluent. Reporter activity was assayed 48 hours post-transfection. Transfection protocols for cultured HEKs using Lipofectamine™ (Invitrogen, Australia) and KJD-1/SV40 cells using Effectene (Qiagen, Australia) have been described previously (2). Transfections were performed in triplicate and repeated at least three times.
(§5) Chloramphenicol acetyltransferase assays (CAT) were performed using a CAT ELISA kit (Roche, Australia) as per manufacturer's instructions. The luciferase assay protocol has been previously reported (6, 41).

[3] = test system: transglutaminase type 1 promoter linked to a firefly luciferase gene (TG-1 Luc); assay: TG-1 Luc reporter assay in transfected human epidermal keratinocytes (HEKs)
Method: as §1, §3, §4, §5

[4] = test system: human cdc2 promoter (cdc2-CAT); assay: cdc2-CAT reporter assay in transfected human epidermal keratinocytes (HEKs); conditions: proliferating HEKs co-transfected with expression plasmid
Method: as §1, §2

[5] = cultured HEKs induced to differentiate by treatment with TPA (50 ng/ml for 48 hours), FIG. 1
[6] = differentiated (confluent or TPA-treated) HEKs co-transfected with expression plasmid, assayed 48 hours post-transfection

| Compound | TG-1 Luc activity [1] | K10-Luc activity [2, 5] | TG-1 Luc activity [3, 5] | K10-Luc activity [2, 6] | TG-1 Luc activity [3, 6] | TG-1 Luc activity ([3]; proliferating HEKs transfected with E2Fd/n) | cdc2-CAT reporter activity (proliferation-specific marker) [4] |
| --- | --- | --- | --- | --- | --- | --- | --- |
| CCCCCCCCCCCCCC(=O)O[C@@H]1[C@@H](C)[C@@]2(O)[C@@H](C=C(CO)C[C@]3(O)C(=O)C(C)=C[C@@H]23)[C@@H]2C(C)(C)[C@]12OC(C)=O [TPA, 12-O-tetradecanoylphorbol-13-acetate, reference compound] | no induction | increased | increased | – | – | – | – |
| E2F1: E2F1 transcription factor overexpressed from the CMV-E2F1 expression plasmid | – | – | – | significantly suppressed | significantly suppressed; also recorded: suppresses | – | – |
| E2Fd/n: E2F1 dominant-negative construct coding for amino acids 116-235, spanning the DNA binding domain and heterodimerisation domain | not altered | – | – | superinduces/derepresses | superinduce/derepress; also recorded: superinduces/derepresses | not sufficient to induce | suppression |
